# Assay results from US7320679B2, “Therapeutic use of growth factor, and delivery device, especially for the treatment of intimal hyperplasia” (Ark Therapeutics, Ltd., priority 1996, dated 2008).
# “And” between values parts separate entries of the source, which are not always exact repeats. Equal entries are not always repeated. “Also recorded” adds a separate entry of the source.
# Tests used:
# [1] = test system: carotid arteries (intimal thickening); test: Collar-induced intimal thickening in rabbit carotid arteries after adventitial plasmid/liposome gene transfer; type: in vivo, New Zealand White rabbits; conditions: L-NAME 70 mg/kg/d in drinking water; 7 days after gene transfer
# From the text: The model preserved EC integrity and permitted direct extravascular gene transfer without any intravascular manipulation.
# Gene Transfer: Intimal thickening was induced in the carotid arteries of thirty-two New Zealand White rabbits by inserting an inert silicone collar around the arteries under a general anaesthesia (Booth et al, Atherosclerosis (1989) 76:257-268). […] No intravascular manipulations were involved in any steps of the studies. […] Plasmids used for the studies were isolated from E. coli cultures (DH5α) using Qiagen Mega columns and purified using three phenol/chloroform extractions and one ethanol precipitation (Ausubel et al, eds. Current Protocols in Molecular Biology. New York, N.Y.: Greene Publishing Associates and John Wiley & Sons (1991) 4.2.3-4.2.4) were adjusted to 1 μg/μl and analysed to be free of any microbiological or endotoxin contamination (Limulus assay, detection limit 0.2 ng). […] Differences in the intima/media thickness ratios between the groups were analysed by ANOVA, followed by modified t-test (*p<0.05). […]
# Gene transfer was carried out as described in Example 1.1. […] Animals were sacrificed 7 days after gene transfer and analysed for the intima/media thickness ratio and histology as described above (Ylä-Herttuala et al, Arteriosclerosis (1986) 6: 230-236; Ylä-Herttuala et al (1990) supra). […]
# [2] = test system: 205 kD protein corresponding to VEGF receptor; test: Anti-phosphotyrosine immunoprecipitation/immunoblot in HUVEC; type: cell-based, human
# Method: In some experiments, cells were pretreated for 1 h with 100 μM L-NAME and subsequently treated either with or without. […] The medium was removed and cells were rapidly lysed at 4° C. by addition of 10 mM Tris/HCl (pH 7.6), 5 mM EDTA, 50 mM NaCl, 30 mM sodium pyrophosphate, 50 mM NaF, 0.1 mM Na3VO4, 1 mM PMSF and 1% Triton X-100 (lysis buffer). Lysates were clarified by centrifugation at 15000×g for 10 min, and immunoprecipitations were performed by incubating clarified lysates with PY20 anti-phosphotyrosine mAb for 2 h at […] Immunoprecipitates were collected by incubating lysates for a further 1 hour with protein A-agarose. Immunoprecipitates were washed three times with lysis buffer and proteins were then extracted with 2×SDS-PAGE sample buffer. After SDS-PAGE, immunoprecipitated proteins were transferred to membranes and then immunoblotted with PY20 mAb.
# [3] = test system: NO production in HUVEC; test: Nitrite (NO) production in HUVEC, capillary detection method; type: cell-based, human
# Method: Nitrite production was measured using capillary detection method (Leone et al, in Methods in Nitric Oxide Research, Feelisch and Stanler, eds. John Wiley & Sons, New York (1996) 499-508).
# [4] = test system: PGI2 synthesis in HUVEC; test: PGI2 assay (radioimmunoassay of 6-keto-PGF1a) in HUVEC; type: cell-based, human
# Method: (§1) Cell Culture: HUVECs were obtained either from Clonetics and cultured in the manufacturer's own medium supplemented with 2% FBS, or were grown from fresh umbilical cords by collagenase digestion and cultured on 1% gelatin-coated plates in medium 199 supplemented with 20% FCS and endothelial cell growth supplement (Wheeler-Jones et al, Biochem. J. (1996) 315:407-416). For experimental purposes, primary cultures of HUVEC were dispersed by treatment with 0.05% trypsin/0.02% EDTA for 5 min at 37° C. and then replated in either 90 mm, 60 mm or 35 mm plastic dishes, or onto 24-well plates. Cultures were maintained in a humidified atmosphere containing 5% CO2 and […] at 37° C. and used after 6-8 days or when the cells had formed a confluent monolayer. […] The PGI2 content of cell supernatants was quantified by radioimmunoassay of 6-keto-PGF1a, the stable breakdown product of PGI2 as previously described (Wheeler-Jones et al, supra). Arachidonic Acid Release: Arachidonic acid release was determined essentially as described (Domin and Rozengurt, J. Biol. Chem. (1993) 268:8927-8934.). Confluent HUVEC cultures were incubated for 24 h with [5,6,8,9,11,12,14,15-^3H]arachidonic acid (1 mCi/ml, 211 Ci/mmol). […] After treatment, the medium was removed, centrifuged in a microcentrifuge at 16,000×g for 5 min, and the radioactivity in the supernatant was determined by counting in a scintillation counter. Western Blotting Procedures: Treatment of quiescent cultures of cells with factors, and cell lysis were performed as described above and in the Results and Figure Legends. After SDS-PAGE, proteins were transferred to Immobilon membranes (Millipore Inc.). For MAP kinase assays, membranes were blocked using 5% non-fat dried milk in PBS, pH 7.2, and incubated for 3-5 h in PBS/0.05% Tween-20 containing primary antibody (1 mg/ml) as indicated. For immunoblots with antibody to cPLA2, membranes were blocked for 3 h in TBST50 mM Tris/HCl, 150 mM NaCl, 0.02% (v/v) Tween 20 pH 7.4 (TBST) containing 0.2% (w/v) 1-block (Tropix), then incubated with primary antiserum in TBST. Membranes were then washed six times (10 min each wash) in TBST and incubated for 1 hour in TBST containing HRP-conjugated secondary antibody. Immunoreactive bands were visualized by chemiluminescence using HRP-conjugated anti-mouse or anti-rabbit IgG and ECL™ reagent according to the manufacturers instructions. MAP Kinase Assay: Cells were treated with factors as indicated, washed rapidly twice with ice-cold PBS and immediately extracted by the addition of […] boiling 2×SDS-PAGE sample buffer. Cell extracts were collected by scraping, heated to 95° C. for 10 min and run on 12.5% acrylamide SDS-PAGE gels. Following transfer to Immobilon membranes, proteins were immunoblotted with an antibody which specifically recognizes p42 and p44 MAP kinases (Erk-1 and Erk-2) activated by phosphorylation at Tyr204 (Payne e al, EMBO J. (1991) 10:885-892.). cPLA2 Mobility Shift Assay: Confluent quiescent HUVECs in 60 mm dishes were washed twice in serum-free medium 199 (pH 7.4) and subsequently exposed, for the times indicated, to medium containing factors as detailed in the Figure legends. Cell lysates were prepared as previously described (Wheeler-Jones et al, supra). Proteins were separated by SDS-PAGE (10% acrylamide) and after transfer to membranes were immunoblotted with polyclonal anti-serum to cPLA2 (BorschHaubold et al, J. Biol. Chem. (1995) 270: 25885-25892; and Kramer et al, J. Biol. Chem. (1996) 271:27723-27729). Assay of vWF Secretion: vWF secretion was measured by ELISA (Wheeler-Jones et al, supra) in samples of medium obtained from confluent cultures of HUVECs which had been treated with factors, as indicated. Plates were coated with the anti-vWF mAb CLBRAg35, and the lower detection limit of the assay was approximately 1.0 mU/ml. Materials: Recombinant VEGF was obtained either from UBI or from R & D Systems. […]
# [5] = test system: arachidonic acid release in HUVEC; test: Arachidonic acid release from prelabelled HUVEC; type: cell-based, human
# Method: as §1
# [6] = test system: cPLA2; test: cPLA2 mobility shift assay in HUVEC; type: cell-based, human
# Method: as §1
# [7] = test system: vWF secretion by HUVECs; test: vWF secretion by ELISA in HUVEC; type: cell-based, human
# Method: as §1
# [8] = test system: p42/p44 MAP kinases; test: MAP kinase assay (phospho-p42/p44 immunoblot) in HUVEC; type: cell-based, human; conditions: 15 min exposure
# Method: as §1
# [9] = test system: HUVECs; test: Migration of HUVECs in chemotaxis chambers; type: cell-based, human; conditions: PIGF 5-60 ng/ml
compound,measurement,setting,value
COC(=O)[C@@H](N)CCCNC(=N)N[N+](=O)[O-] [L-NAME],effect of L-NAME on the difference in intimal thickening between VEGF- and lacZ-transfected arteries,[1],abolished
same,effect of L-NAME on VEGF-induced phosphorylation,"[2]; 100 μM L-NAME 1 h pretreatment, 10 ng/ml VEGF 10 min",abolishes the response to VEGF; also recorded: completely abolished
same,effect of L-NAME on VEGF-induced NO production,[3]; 100 μM L-NAME,completely abolished
same,nitrite production level after L-NAME,"[3]; L-NAME 100 μM pretreatment 1 hour, then 25 ng/ml VEGF 10 minutes",~17 µM
VEGF,concentration range inducing tyrosine phosphorylation of 205 kDa protein,[2]; HUVEC,1 to 25 ng/mL
same,time for which NO production was sustained,[3],up to 2 hours
same,half-maximal effect on NO production,"[3]; HUVEC, nitrite levels",5 ng/mL
same,nitrite production level,"[3]; VEGF 2.5 ng/ml, 10 minutes (first of two levels)",~19 µM
same,nitrite production level,[3]; VEGF 25 ng/ml for times up to 2 h,1.8 to 2 µM
same,nitrite production level,"[3]; VEGF 25 ng/ml, 10 minutes (second of two levels)",~2.1 µM
same,earliest time effect on NO production seen,[3]; after addition of VEGF,30 s
same,time of maximum NO production,[3]; after addition of VEGF,5 min
same,time for which PGI2 production was sustained,[4],up to 2 h
same,time up to which PGI2 production continued to increase,[4],up to 60 min
same,PGI2 synthesis at 25 ng/ml,[4]; 25 ng/ml VEGF,small decline
same,mean fold increase in 6-keto PGF1a above control unstimulated level,"[4]; 60 min, 25 ng/ml VEGF, 60 ng/ml PIGF, 1 U/ml thrombin",2.0 fold and 2 fold
same,concentration at which increase in PGI2 synthesis was detectable,[4]; 60 min incubation,5 ng/mL
same,concentration of maximum PGI2 synthesis,[4]; 60 min incubation,15 ng/mL
same,half-maximal PGI2 synthesis,[4]; 60 min incubation,10 ng/mL
same,concentration of maximum arachidonic acid release,[5],10 to 20 ng/mL
same,half-maximum effect on arachidonic acid release,[5],2.5 to 5 ng/mL
same,mean increase in release of labelled arachidonic acid above basal unstimulated level,[5],1.6 fold
same,time at which arachidonic acid release was evident,[5],10 min
same,time of half-maximum arachidonic acid mobilization,[5],10 min
same,time of maximum arachidonic acid release,[5],30 min
same,cPLA2 mobility shift (in words),[6],marked increase in the immunoreactivity of the slow-migrating form
same,concentration giving noticeable increase in slow-migrating cPLA2,[6],2.5 ng/mL
same,concentration of maximum increase in slow-migrating cPLA2,[6],5 to 10 ng/mL and 5 ng/mL
same,time at which cPLA2 shift to slow-migrating form was detectable,[6]; VEGF 25 ng/ml,2 min
same,time for which cPLA2 shift was sustained,[6]; VEGF 25 ng/ml,up to 60 min
same,time of maximum cPLA2 shift,[6]; VEGF 25 ng/ml,15 min
same,vWF secretion (in words),[7],"comparable to, though consistently weaker than, that of thrombin"
same,vWF level above control cells,"[7]; 25 ng/ml VEGF, 3 h",2.5 fold
same,concentration of maximum effect on vWF secretion,[7]; highest concentration tested,25 ng/mL
same,concentration of maximum MAP kinase activation,[8],10 ng/mL and 5 to 10 ng/mL
same,concentration up to which maximum MAP kinase effect was sustained,[8],up to 50 ng/ml
same,chemotaxis of HUVECs,[9],concentration-dependent increase in chemotaxis
